# System: AsPC-1 (K-Ras G12D)
# Assay: Potency assay: pERK in AsPC-1 cells
# Assay type: cell-based
# Conditions: Homo sapiens, ASPC1; AsPC-1 cells, K-Ras G12D; read-out: pERK EC50 (AsPC-1 KRAS G12D)
row,Structure (SMILES),EC50 [µM]
1,"CCn1c(-c2cccnc2[C@H](C)OC)c2c3cc(ccc31)-c1cc(O)cc(c1)C[C@H](NC(=O)[C@H](C(C)C)N(C)C(=O)[C@H]1CCN(S(=O)(=O)[C@H]3CN3C)C1)C(=O)N1CCC[C@H](N1)C(=O)OCC(C)(C)C2 (single isomer, unassigned) [Compound 57]",< 5
2,CCn1c(-c2cccnc2[C@H](C)OC)c2c3cc(ccc31)-c1cccc(c1)C[C@H](NC(=O)[C@H](C(C)C)N(C)C(=O)[C@H]1CC[C@H](N=C=NC(C)C)C1)C(=O)N1CCC[C@H](N1)C(=O)OCC(C)(C)C2 [Compound 124],< 5

# System: AsPC-1 (K-Ras G12D)
# Assay: CellTiter-Glo cell viability assay, AsPC-1
# Assay type: cell-based
# Conditions: Homo sapiens, ASPC1, 120 h, AsPC-1, K-Ras G12D, 5-day treatment; read-out: AsPC-1 Cell Viability IC50
# Experimental: Determination of Cell Viability in RAS Mutant Cancer Cell Lines
# Protocol: CellTiter-Glo® Cell Viability Assay
# Note—The following protocol describes a procedure for monitoring cell viability of K-Ras mutant cancer cell lines in response to a compound of the invention. Other RAS isoforms may be employed, though the number of cells to be seeded will vary based on cell line used.
# Test compounds (132.5 nL) were directly dispensed into the assay plates containing cells. […] On day 5, assay plates and their contents were equilibrated to room temperature for approximately 30 minutes. […] Luminescence was measured using the PerkinElmer Enspire. Data were normalized by the following: (Sample signal/Avg. DMSO)*100. The data were fit using a four-parameter logistic fit.
row,Structure (SMILES),IC50 [µM]
1,"CCn1c(-c2cccnc2[C@H](C)OC)c2c3cc(ccc31)-c1cc(O)cc(c1)C[C@H](NC(=O)[C@H](C(C)C)N(C)C(=O)[C@H]1CCN(S(=O)(=O)[C@H]3CN3C)C1)C(=O)N1CCC[C@H](N1)C(=O)OCC(C)(C)C2 (single isomer, unassigned) [Compound 57]",1 to 10
2,CCn1c(-c2cnccc2COC)c2c3cc(ccc31)-c1cccc(c1)C[C@H](NC(=O)[C@H](C(C)C)N(C)C(=O)CCN=C=Nc1ccc(OC)cc1)C(=O)N1CCC[C@H](N1)C(=O)OCC(C)(C)C2 [15 A and B],> 10
3,CCn1c(-c2cnccc2COC)c2c3cc(ccc31)-c1cc(O)cc(c1)C[C@H](NC(=O)[C@H](C(C)C)N(C)C(=O)c1ccc(NC(=O)[C@H]3CN3)cn1)C(=O)N1CCC[C@H](N1)C(=O)OCC(C)(C)C2 [47 A and B],> 10
4,CCn1c(-c2cnccc2COC)c2c3cc(ccc31)-c1cccc(c1)C[C@H](NC(=O)[C@H](C(C)C)N(C)C(=O)CCN=C=NCc1ccc(OC)cc1OC)C(=O)N1CCC[C@H](N1)C(=O)OCC(C)(C)C2 [61 A and B],1 to 10
5,CCn1c(-c2cnccc2COC)c2c3cc(ccc31)-c1cccc(c1)C[C@H](NC(=O)[C@H](C(C)C)N(C)C(=O)CC1(N=C=Nc3ccc(OC)cc3)CC1)C(=O)N1CCC[C@H](N1)C(=O)OCC(C)(C)C2 [65 A and B],1 to 10
6,CCn1c(-c2cnccc2COC)c2c3cc(ccc31)-c1cccc(c1)C[C@H](NC(=O)[C@H](C(C)C)N(C)C(=O)CCN=C=NCc1ccccc1C)C(=O)N1CCC[C@H](N1)C(=O)OCC(C)(C)C2 [82 A and B],1 to 10
7,CCn1c(-c2cccnc2[C@H](C)OC)c2c3cc(ccc31)-c1cccc(c1)C[C@H](NC(=O)[C@H](C(C)C)N(C)C(=O)CCN=C=NCc1ccccc1OC)C(=O)N1CCC[C@H](N1)C(=O)OCC(C)(C)C2 [Compound 73],1 to 10
8,CCn1c(-c2cccnc2[C@H](C)OC)c2c3cc(ccc31)-c1cccc(c1)C[C@H](NC(=O)[C@H](C(C)C)N(C)C(=O)[C@H]1CC[C@H](N=C=NCc3ccccc3OC)C1)C(=O)N1CCC[C@H](N1)C(=O)OCC(C)(C)C2 [Compound 76],1 to 10
9,CCn1c(-c2cnccc2COC)c2c3cc(ccc31)-c1cccc(c1)C[C@H](NC(=O)[C@H](C(C)C)N1CC[C@@H](CN=C=NCCOC)C1)C(=O)N1CCC[C@H](N1)C(=O)OCC(C)(C)C2 [Compound 80],1 to 10
10,CCn1c(-c2cnccc2COC)c2c3cc(ccc31)-c1cc(O)cc(c1)C[C@H](NC(=O)[C@H](C(C)C)N(C)C(=O)CN1C(=O)[C@H]3N[C@H]3C1=O)C(=O)N1CCC[C@H](N1)C(=O)OCC(C)(C)C2 [Compound 98],> 10
11,CCn1c(-c2cccnc2[C@H](C)OC)c2c3cc(ccc31)-c1cc(O)cc(c1)C[C@H](NC(=O)[C@H](C(C)C)N1CCC3(CN(C(=O)[C@@H]4CN4)C3)C1=O)C(=O)N1CCC[C@H](N1)C(=O)OCC(C)(C)C2 [Compound 109],> 10
12,CCn1c(-c2cccnc2[C@H](C)OC)c2c3cc(ccc31)-c1cc(O)cc(c1)C[C@H](NC(=O)[C@H](C(C)C)N1CCC3(CN(C(=O)[C@H]4CN4)C3)C1=O)C(=O)N1CCC[C@H](N1)C(=O)OCC(C)(C)C2 [Compound 115],> 10
13,CCn1c(-c2cccnc2[C@H](C)OC)c2c3cc(ccc31)-c1cccc(c1)C[C@H](NC(=O)[C@H](C(C)C)N(C)C(=O)[C@H]1C[C@H](N=C=Nc3c(C)cccc3C)C1)C(=O)N1CCC[C@H](N1)C(=O)OCC(C)(C)C2 [Compound 126],> 10
14,CCn1c(-c2cccnc2[C@H](C)OC)c2c3cc(ccc31)-c1cc(O)cc(c1)C[C@H](NC(=O)[C@H](C(C)C)N1CC[C@@]3(CCN(C(=O)[C@@H]4N[C@@H]4C4CC4)C3)C1=O)C(=O)N1CCC[C@H](N1)C(=O)OCC(C)(C)C2 [Compound 128],1 to 10
15,CCn1c(-c2cccnc2[C@H](C)OC)c2c3cc(ccc31)-c1cc(O)cc(c1)C[C@H](NC(=O)[C@H](C(C)C)N1CC[C@@H](NC(=O)[C@H]3CN3)C1=O)C(=O)N1CCC[C@H](N1)C(=O)OCC(C)(C)C2 [Compound 130],> 10
16,CCn1c(-c2cccnc2[C@H](C)OC)c2c3cc(ccc31)-c1cc(O)cc(c1)C[C@H](NC(=O)[C@H](C(C)C)N(C)C(=O)c1ccc([C@@H]3CN3)cc1)C(=O)N1CCC[C@H](N1)C(=O)OCC(C)(C)C2 [Compound 131],> 10
17,CCn1c(-c2cccnc2[C@H](C)OC)c2c3cc(ccc31)-c1cc(O)cc(c1)C[C@H](NC(=O)[C@H](C(C)C)N(C)C(=O)N1CCN(C(=O)[C@H]3CN3)C(=O)C1)C(=O)N1CCC[C@H](N1)C(=O)OCC(C)(C)C2 [Compound 143],> 10

row,Structure (SMILES),IC50 [µM]
1,CCn1c(-c2cccnc2[C@H](C)OC)c2c3cc(ccc31)-c1cc(O)cc(c1)C[C@H](NC(=O)[C@H](C(C)C)N(C)C(=O)c1ccc([C@H]3CN3)cc1)C(=O)N1CCC[C@H](N1)C(=O)OCC(C)(C)C2 [Compound 145],> 10
2,CCn1c(-c2cccnc2[C@H](C)OC)c2c3cc(ccc31)-c1cc(O)cc(c1)C[C@H](NC(=O)[C@H](C(C)C)N(C)C(=O)C1CC3(C1)CN(C(=O)[C@@H]1CN1)C3)C(=O)N1CCC[C@H](N1)C(=O)OCC(C)(C)C2 [Compound 180],> 10
3,CCn1c(-c2cccnc2[C@H](C)OC)c2c3cc(ccc31)-c1cc(O)cc(c1)C[C@H](NC(=O)[C@H](C(C)C)N(C)C(=O)N1CC(NC(=O)[C@@H]3CN3)C1)C(=O)N1CCC[C@H](N1)C(=O)OCC(C)(C)C2 [Compound 188],> 10
4,CCn1c(-c2cccnc2[C@H](C)OC)c2c3cc(ccc31)-c1cc(O)cc(c1)C[C@H](NC(=O)[C@H](C(C)C)N(C)C(=O)N1CC(NC(=O)[C@H]3CN3)C1)C(=O)N1CCC[C@H](N1)C(=O)OCC(C)(C)C2 [Compound 189],> 10
5,CCn1c(-c2cccnc2[C@H](C)OC)c2c3cc(ccc31)-c1cc(O)cc(c1)C[C@H](NC(=O)[C@H](C(C)C)N(C)C(=O)N1CCN(C(=O)[C@@H]3CN3)C(=O)C1)C(=O)N1CCC[C@H](N1)C(=O)OCC(C)(C)C2 [Compound 194],> 10
6,CCn1c(-c2cccnc2[C@H](C)OC)c2c3cc(ccc31)-c1cc(O)cc(c1)C[C@H](NC(=O)[C@H](C(C)C)N(C)C(=O)N(C)C1CN(C(=O)[C@H]3CN3)C1)C(=O)N1CCC[C@H](N1)C(=O)OCC(C)(C)C2 [Compound 203],> 10
7,CCn1c(-c2cccnc2[C@H](C)OC)c2c3cc(ccc31)-c1cc(O)cc(c1)C[C@H](NC(=O)[C@H](C(C)C)N(C)C(=O)[C@H]1CCN(C(=O)[C@H]3CN3)[C@H]1C)C(=O)N1CCC[C@H](N1)C(=O)OCC(C)(C)C2 [Compound 206],> 10
8,CCn1c(-c2cccnc2[C@H](C)OC)c2c3cc(ccc31)-c1cc(O)cc(c1)C[C@H](NC(=O)[C@@H](COC1CCN(C(=O)[C@H]3CN3)CC1)C(C)C)C(=O)N1CCC[C@H](N1)C(=O)OCC(C)(C)C2 [Compound 211],> 10
9,CCn1c(-c2cccnc2[C@H](C)OC)c2c3cc(ccc31)-c1cc(O)cc(c1)C[C@H](NC(=O)[C@H](C(C)C)N(C)C(=O)c1nc(NC(=O)[C@H]3CN3)cs1)C(=O)N1CCC[C@H](N1)C(=O)OCC(C)(C)C2 [Compound 212],> 10
10,CCn1c(-c2cccnc2[C@H](C)OC)c2c3cc(ccc31)-c1cc(O)cc(c1)C[C@H](NC(=O)[C@H](C(C)C)N1CC[C@H](NC(=O)[C@H]3CN3)C1=O)C(=O)N1CCC[C@H](N1)C(=O)OCC(C)(C)C2 [Compound 213],> 10
11,CCn1c(-c2cccnc2[C@H](C)OC)c2c3cc(ccc31)-c1csc(n1)C[C@H](NC(=O)[C@H](C(C)C)N(C)C(=O)N1CC[C@H]1CN(C)C(=O)[C@@H]1CN1)C(=O)N1CCC[C@H](N1)C(=O)OCC(C)(C)C2 [Compound 235],> 10
12,CCn1c(-c2cccnc2[C@H](C)OC)c2c3cc(ccc31)-c1cc(O)cc(c1)C[C@H](NC(=O)[C@H](C(C)C)N(C)C(=O)N1C[C@@H]3[C@H]1CCN3C(=O)[C@H]1CN1)C(=O)N1CCC[C@H](N1)C(=O)OCC(C)(C)C2 [Compound 250],> 10
13,CCn1c(-c2cccnc2[C@H](C)OC)c2c3cc(ccc31)-c1cc(O)cc(c1)C[C@H](NC(=O)[C@H](C(C)C)N(C)C(=O)N1C[C@@H]3[C@H]1CCN3C(=O)[C@@H]1CN1)C(=O)N1CCC[C@H](N1)C(=O)OCC(C)(C)C2 [Compound 251],> 10
14,CCn1c(-c2cccnc2[C@H](C)OC)c2c3cc(ccc31)-c1cc(O)cc(c1)C[C@H](NC(=O)[C@H](C(C)C)N(C)C(=O)N1CC[C@@H](N(C)C(=O)[C@H]3CN3)C1)C(=O)N1CCC[C@H](N1)C(=O)OCC(C)(C)C2 [Compound 252],> 10
15,CCn1c(-c2cccnc2[C@H](C)OC)c2c3cc(ccc31)-c1cc(O)cc(c1)C[C@H](NC(=O)[C@H](C(C)C)N(C)C(=O)N1CC[C@@H](N(C)C(=O)[C@@H]3CN3)C1)C(=O)N1CCC[C@H](N1)C(=O)OCC(C)(C)C2 [Compound 253],> 10
16,CCn1c(-c2cccnc2[C@H](C)OC)c2c3cc(ccc31)-c1cc(O)cc(c1)C[C@H](NC(=O)[C@@H](COC1CN(C(=O)[C@H]3CN3)C1)C(C)C)C(=O)N1CCC[C@H](N1)C(=O)OCC(C)(C)C2 [Compound 312],> 10

# Same assay, conditions: Homo sapiens, ASPC1, 120 h, read-out: AsPC-1 Cell Viability IC50, AsPC-1, K-Ras G12D, 5-day treatment
row,Structure (SMILES),IC50 [µM]
1,CCn1c(-c2cccnc2[C@H](C)OC)c2c3cc(ccc31)-c1cc(O)cc(c1)C[C@H](NC(=O)[C@H](C(C)C)N(C)C(=O)CN(C)C(=O)[C@H]1N[C@@H]1C1CC1)C(=O)N1CCC[C@H](N1)C(=O)OCC(C)(C)C2 [Compound 135],0.1 to 1

# Source: patent US11739074B2, “Ras inhibitors” (Revolution Medicines, Inc., priority 2019, dated 2023)
